Common to all, as to format: functional
In test [1] the test system is Brachyspira hyodysenteriae. Briefly: Antibacterial activity against Serpulina (Treponema) hyodysenteriae (the causative organism of swine dysentery).
The test system of a further test is Pasteurella multocida. Briefly: Antibacterial activity against Pasteurella multocida (an important animal respiratory pathogen).
Test [2] has as its system Brachyspira hyodysenteriae. Kind of test: Compound was tested for antibacterial activity against Serpulina (Treponema hyodysenteriae (the causative organism of swine dysentery).

In brackets after ≈: the same amount, converted by molar mass.

By MIC is commonly meant the least concentration at which growth counts as inhibited. Low values mean a more susceptible organism, high ones a less susceptible organism. As for `C=CCOc1ccc(/C=C(\C)C(=O)N[C@@H]2[C@H](O)[C@@H](O)[C@H]3OCO[C@H]3[C@@H]2O)c(OC)c1`, the MIC (in test [1]; in the test on Pasteurella multocida) was above 200 µg/mL in each case.

`C=CCOc1ccc(/C=C(\C)C(=O)N[C@@H]2[C@H](O)[C@@H](O)[C@H]3OCO[C@H]3[C@@H]2O)c(F)c1`: the MIC in test [1] stood at 3.13 µg/mL (≈ 7.65 µM); in the test with Pasteurella multocida, 25 µg/mL (≈ 61.1 µM).

With `C=CCOc1c(F)cc(/C=C(\C)C(=O)N[C@@H]2[C@H](O)[C@@H](O)[C@H]3OCO[C@H]3[C@@H]2O)c(F)c1O`, the figures for the MIC (in test [1]; in the test with Pasteurella multocida) were 50 µg/mL (≈ 113 µM) and 100 µg/mL (≈ 226 µM), respectively.

For `C=CCOc1ccc(/C=C(/C)C(=O)N[C@@H]2[C@H](O)[C@@H](O)[C@H]3OCO[C@H]3[C@@H]2O)cc1C`, the MIC in test [1] is 6.25 µg/mL (≈ 15.4 µM); in the test with Pasteurella multocida, 50 µg/mL (≈ 123 µM).

As to `C=CCOc1ccc(/C=C(/C)C(=O)N[C@@H]2[C@H](O)[C@@H](O)[C@H]3OCO[C@H]3[C@@H]2O)cc1NS(C)(=O)=O`, the MIC (in test [1]; in the test with Pasteurella multocida) was above 200 µg/mL each time.

As for `C=CCOc1ccc(/C=C(/C)C(=O)N[C@@H]2[C@H](O)[C@@H](O)[C@H]3OCO[C@H]3[C@@H]2O)cc1O`, the MIC (in test [2]; with Pasteurella multocida) was 0.78 µg/mL (≈ 1.91 µM) in each case.

Take `C=CCOc1ccc(/C=C(/C)C(=O)N[C@@H]2[C@H](O)[C@@H](O)[C@H]3OCO[C@H]3[C@@H]2O)cc1CO`: the MIC against Pasteurella multocida is 100 µg/mL (≈ 237 µM).

For `C=CCOc1ccc(/C=C(/C)C(=O)N[C@@H]2[C@H](O)[C@@H](O)[C@H]3OCO[C@H]3[C@@H]2O)cc1F`, the MIC amounted to 1.56 µg/mL (≈ 3.81 µM) in test [1] and 50 µg/mL (≈ 122 µM) in the test on Pasteurella multocida.

As to `C=CCOc1ccc(/C=C(\C)C(=O)N[C@@H]2[C@H](O)[C@@H](O)[C@H]3OCO[C@H]3[C@@H]2O)cc1CNCC`, in the test on Pasteurella multocida, the MIC is above 200 µg/mL.

Turning to `C=CCOc1c(O)cc(/C=C(/C)C(=O)N[C@@H]2[C@H](O)[C@@H](O)[C@H]3OCO[C@H]3[C@@H]2O)cc1Br`, the MIC (in test [1]; against Pasteurella multocida) was above 200 µg/mL in each case.

`C=CCOc1ccc(/C=C(/C)C(=O)N[C@@H]2[C@H](O)[C@@H](O)[C@H]3OCO[C@H]3[C@@H]2O)cc1I`: the lowest concentration to inhibit growth in test [1] (MIC) was 100 µg/mL (≈ 193 µM).

The compound `C=CCOc1ccc(/C=C(/C)C(=O)N[C@@H]2[C@H](O)[C@@H](O)[C@H]3OCO[C@H]3[C@@H]2O)cc1Cl` came in with an MIC in test [1] of 3.13 µg/mL (≈ 7.35 µM).

Take `C=CCOc1ccc(/C=C(\C)C(=O)N[C@@H]2[C@H](O)[C@@H](O)[C@H]3OCO[C@H]3[C@@H]2O)c(F)c1F`: the minimal inhibitory concentration (MIC) was 25 µg/mL (≈ 58.5 µM) in test [1] and above 200 µg/mL against Pasteurella multocida.

`C=CCOc1c(Br)cc(/C=C(/C)C(=O)N[C@@H]2[C@H](O)[C@@H](O)[C@H]3OCO[C@H]3[C@@H]2O)cc1Br`: the MIC (in test [1]; in the test with Pasteurella multocida) was above 200 µg/mL in each case.

Take `C=CCOc1ccc(/C=C(/C)C(=O)N[C@@H]2[C@H](O)[C@@H](O)[C@H]3OCO[C@H]3[C@@H]2O)cc1`: the MIC in test [1] was 6.25 µg/mL (≈ 16 µM); in the test with Pasteurella multocida, 50 µg/mL (≈ 128 µM).

As to `C=CCOc1c(F)cc(/C=C(/C)C(=O)N[C@@H]2[C@H](O)[C@@H](O)[C@H]3OCO[C@H]3[C@@H]2O)cc1F`, the minimum inhibitory concentration (MIC) in test [1] is 25 µg/mL (≈ 58.5 µM); against Pasteurella multocida it was above 200 µg/mL.

As to `C=CCOc1c(O)cc(/C=C(/C)C(=O)N[C@@H]2[C@H](O)[C@@H](O)[C@H]3OCOC3[C@@H]2O)cc1OC` (single isomer, unassigned), the MIC (in test [1]; with Pasteurella multocida) was above 200 µg/mL in each case.

Regarding `C=CCOc1ccc(/C=C(/C)C(=O)N[C@@H]2[C@H](O)[C@@H](O)[C@H]3OCO[C@H]3[C@@H]2O)cc1NC(C)=O`, the MIC (in test [1]; against Pasteurella multocida) was above 200 µg/mL each time.

Turning to `C=CCOc1c(C)cc(/C=C(/C)C(=O)N[C@@H]2[C@H](O)[C@@H](O)[C@H]3OCO[C@H]3[C@@H]2O)cc1C`, the minimum inhibitory concentration (MIC) (in test [1]; in the test with Pasteurella multocida) was above 200 µg/mL in each case.

Turning to `C=CCOc1ccc(/C=C(\C)C(=O)N[C@@H]2[C@H](O)[C@@H](O)[C@H]3OCO[C@H]3[C@@H]2O)c(Cl)c1`, the MIC (in test [1]; against Pasteurella multocida) was above 200 µg/mL each time.

For the compound `C=CCOc1ccc(/C=C(/C)C(=O)N[C@@H]2[C@H](O)[C@@H](O)[C@H]3OCO[C@H]3[C@@H]2O)cc1C(=O)O`, the MIC (in test [1]; against Pasteurella multocida) was above 200 µg/mL each time.

As to `C=CCOc1ccc(/C=C(/C)C(=O)N[C@@H]2[C@H](O)[C@@H](O)[C@H]3OCO[C@H]3[C@@H]2O)cc1Br`, the minimum inhibitory concentration (MIC) is 12.5 µg/mL (≈ 26.6 µM) in test [1] and above 200 µg/mL in the test on Pasteurella multocida.

As to `C=CCOc1ccc(/C=C(/C)C(=O)N[C@@H]2[C@H](O)[C@@H](O)[C@H]3OCO[C@H]3[C@@H]2O)cc1NC`, the MIC (in test [1]; in the test on Pasteurella multocida) was above 200 µg/mL in each case.

Take `C=CCOc1c(O)cc(/C=C(/C)C(=O)N[C@@H]2[C@H](O)[C@@H](O)[C@H]3OCO[C@H]3[C@@H]2O)cc1C#N`: the MIC (in test [1]; against Pasteurella multocida) was above 200 µg/mL each time.

With `CC(=O)[C@H]1O[C@@H](Oc2ccc(C=C(C)C(=O)N[C@@H]3[C@H](O)[C@@H](O)[C@H]4OCO[C@H]4[C@@H]3O)cc2O)[C@@H](O)[C@@H]1O` [HYGROMYCIN A], the MIC (in test [1]; in the test with Pasteurella multocida) was 0.78 µg/mL (≈ 1.52 µM) in each case.

For `C=CCOc1ccc(/C=C(/C)C(=O)N[C@@H]2[C@H](O)[C@@H](O)[C@H]3OCO[C@H]3[C@@H]2O)cc1N`, the MIC (in test [1]; against Pasteurella multocida) was 0.78 µg/mL (≈ 1.92 µM) throughout.

As to `C=CCOc1ccc(/C=C(/C)C(=O)N[C@@H]2[C@H](O)[C@@H](O)[C@H]3OCO[C@H]3[C@@H]2O)cc1OC`, the MIC (in test [1]; against Pasteurella multocida) was above 200 µg/mL throughout.

For the compound `C=CCOc1cc(F)c(/C=C(/C)C(=O)N[C@@H]2[C@H](O)[C@@H](O)[C@H]3OCO[C@H]3[C@@H]2O)cc1F`, the results for the MIC (in test [1]; against Pasteurella multocida) were 1.56 µg/mL (≈ 3.65 µM) and 25 µg/mL (≈ 58.5 µM), respectively.

Values taken from ChEMBL document CHEMBL1127187, “Semisynthetic modification of hygromycin A. 2. synthesis and antibacterial activity of aryl analogs” (1993).
